Measurements from article PMC10038264, “A new family of glutamate-gated chloride channels in parasitic sea louse Caligus rogercresseyi: A subunit refractory to activation by ivermectin is dominant in heteromeric assemblies” (PLOS Pathogens, 2023).
Read-outs that look alike come from different tables or passages of the source.

Assays:
[1] = target: T1, CrGluCl-A (Caligus rogercresseyi, UniProt A0A1W6LZ70); conditions: cited from earlier work
[2] = tested on: CrGluCl-B; assay: Two-electrode voltage-clamp of Xenopus oocytes expressing CrGluCl-B; format: cell-based, Caligus rogercresseyi; conditions: CrGluCl-B
Procedure: (§1) Adult female Xenopus laevis frogs were anaesthetized by immersion in a1g/L solution tricaine (Ethyl 3-aminobenzoate methanesulfonate, Sigma) buffered to pH 7 with NaHCO3. Surgery was performed 30–40 min later, once the frog was completely anaesthetized judging by loss of reflexes. Ovarian lobes were removed through 1 cm abdominal incision and then kept at 16°C in Barth’s modified solution containing (in mM): 88 NaCl, 1 KCl, 0.4 CaCl2, 0.3 Ca (NO3)2, 0.8 MgSO4, 2.4 NaHCO3, 5 Hepes, 2.5 sodium pyruvate, 100 μg/ml gentamicin sulfate, 100 U/ml penicillin, 100 μg/ml streptomycin, 250 μg/ml amphotericin B, 0.22μm filtered and adjusted to pH 7.5 with Tris-Base. Osmolarity was brought to 220 mOsm with saccharose. The oocytes were manually defolliculated on the same day of extraction and the following day 20 ng cRNA in nuclease-free water was injected into stage V-VI oocytes using a FemtoJet microinjector (Eppendorf). Finally, the injected oocytes were stored in 96 well plates containing Barth’s modified solution and kept at 16°C until experiment day.
(§2) Current measurements at controlled membrane potentials (voltage-clamp experiments) were performed using two intracellular microelectrodes in defolliculated Xenopus oocytes previously microinjected with 20 ng of cRNA. Voltage-clamp recording was performed at room temperature using a TURBO TEC-10CX amplifier (npi electronic GmbH, Tamm, Germany) and PClamp 10.6 software (Axon Instruments, USA), 1 to 4 days after oocyte injection. The oocytes were recorded in a chamber (Model RC-1Z, Warner Instrumenst, USA) under continuous superfusion. […] Reference was an Ag-AgCl electrode connected to the bath via a 3 M KCl in 3% agar bridge. Currents were recorded continuously during the experiments without interruptions for solution changes. Oocytes were held at -30 mV and a voltage protocol consisting of a voltage drop to -100 mV for 25ms followed by a 360 ms ramp from -100 mV to 60mV applied with a period of 565 ms was continuously given. The signal filtered at 1 kHz was acquired with a Digidata 1440A Analog-to-Digital Converter and analyzed with Axon pClamp 10.6 software. The solution that bathed the oocytes during the electrophysiological recordings had the following composition (mM): 115 NaCl, 2 KCl, 1.8 CaCl2, 1 MgCl2, 10 HEPES pH 7.5 obtained with NaOH. For the low chloride solution, all the NaCl was replaced with the gluconate salt of Na. This decreases chloride concentration from 122.6 to 7.6 mM while increasing that of gluconate from 0 to 115 mM. The stock solutions of the drugs in dimethyl sulfoxide (DMSO) were: 10 mM emamectin, 10 mM ivermectin, 100 mM picrotoxin. These were diluted in bath solution to obtain final concentrations.
(§3) The currents were normalized according to the extrapolated maximum current delivered by the Hill adjustment. In this way, the concentration that generates 50% of the maximum effect (EC50) and the Hill coefficient (nH) for each situation were obtained.

[3] = target: T1, CrGluCl-A; assay: Two-electrode voltage-clamp of Xenopus oocytes expressing CrGluCl-A; format: cell-based; conditions: 100 μM PTX, CrGluCl-A
Procedure: as §1
Current measurements at controlled membrane potentials (voltage-clamp experiments) were performed using two intracellular microelectrodes in defolliculated Xenopus oocytes previously microinjected with 20 ng of cRNA. Voltage-clamp recording was performed at room temperature using a TURBO TEC-10CX amplifier (npi electronic GmbH, Tamm, Germany) and PClamp 10.6 software (Axon Instruments, USA), 1 to 4 days after oocyte injection. The oocytes were recorded in a chamber (Model RC-1Z, Warner Instrumenst, USA) under continuous superfusion. […] Reference was an Ag-AgCl electrode connected to the bath via a 3 M KCl in 3% agar bridge. Currents were recorded continuously during the experiments without interruptions for solution changes. […] The signal filtered at 1 kHz was acquired with a Digidata 1440A Analog-to-Digital Converter and analyzed with Axon pClamp 10.6 software. […]

[4] = tested on: CrGluCl-C; format: cell-based, Caligus rogercresseyi
Procedure: as §1, §2, §3

[5] = tested on: CrGluCl-D; format: cell-based, Caligus rogercresseyi; conditions: CrGluCl-D, read-out: IC50 PTX inhibition of spontaneous current
Procedure: as §1, §2, §3

T1 sequence (A0A1W6LZ70 entry or part of it): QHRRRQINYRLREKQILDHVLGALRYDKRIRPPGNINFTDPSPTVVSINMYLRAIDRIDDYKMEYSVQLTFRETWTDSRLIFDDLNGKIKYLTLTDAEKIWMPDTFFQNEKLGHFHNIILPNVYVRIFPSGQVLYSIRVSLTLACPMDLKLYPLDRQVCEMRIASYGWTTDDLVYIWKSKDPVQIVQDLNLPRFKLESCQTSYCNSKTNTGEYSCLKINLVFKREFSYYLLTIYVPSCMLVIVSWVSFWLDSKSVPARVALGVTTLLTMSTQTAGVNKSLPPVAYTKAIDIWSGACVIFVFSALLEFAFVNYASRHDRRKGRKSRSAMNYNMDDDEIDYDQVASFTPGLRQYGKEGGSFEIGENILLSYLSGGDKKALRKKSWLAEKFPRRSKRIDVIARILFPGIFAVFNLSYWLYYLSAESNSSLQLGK

For emamectin, the EC50 ([1]; read-out: EC50 Ivermectin / avermectin irreversible activation) is given as ~0.2 µM and the “antagonism of glutamate response” value ([2]; S3 Fig) is given as “antagonistic effect”.

For picrotoxin [PTX], the IC50 [1] is given as 3.2 µM, the “inhibition by PTX of glutamate-elicited current” value ([2]; 100 μM PTX, 1 mM glutamate) is given as 76 ± 9% and the “inhibition by PTX” value [3] is given as 78 ± 2%. For the same substance, the “inhibition by PTX” value ([4]; 100 μM PTX, CrGluCl-C) was 23 ± 10%, the “nH (PTX inhibition)” value ([4]; CrGluCl-C current elicited by 1 μM ivermectin) was -1.2±0.22 and the IC50 ([4]; CrGluCl-C current elicited by 1 μM ivermectin, read-out: IC50 PTX inhibition of ivermectin-induced current) was 275 ± 96 µM. It also gave an IC50 ([5]; after 1 μM ivermectin (~2 min)) of 221 ± 100 µM and an IC50 ([5]; before ivermectin treatment) of 16 ± 8.8 µM.
